Results from article PMC2892826 (Cell cycle (Georgetown, Tex.), 2009).
Read-outs that look alike come from different tables or passages of the source.

Assays:
[1] = target: CT-L activity of purified 20S proteasome (Oryctolagus cuniculus, UniProt G1SU71+G1T4Q9); test: Proteolytic activity of purified 20S proteasome, CT-L; assay type: biochemical, rabbit; details: read-out: IC50 CT-L; purified 20S proteasome, in vitro
[2] = target: T-L activity of purified 20S proteasome (Oryctolagus cuniculus, UniProt G1SWK8); test: Proteolytic activity of purified 20S proteasome, T-L; assay type: biochemical, rabbit; details: read-out: IC50 T-L, in vitro
[3] = target: PGPH activity of purified 20S proteasome (Oryctolagus cuniculus, UniProt G1T235); test: Proteolytic activity of purified 20S proteasome, PGPH; assay type: biochemical, rabbit; details: read-out: IC50 PGPH, in vitro
[4] = test system: MCF-7 breast cancer cells; test: MTT cell viability assay; assay type: cell-based, human; details: read-out: IC50 cell viability (MTT)
[5] = test system: MCF-10A immortalized non-transformed breast cells; test: MTT cell viability assay; assay type: cell-based, human
[6] = test system: C7-Kras (HPDE6-C7K-ras) pancreatic cells; test: MTT cell viability assay; assay type: cell-based, human
T80-Hras ovarian cells = test: MTT cell viability assay; assay type: cell-based, human; details: read-out: IC50 cell viability (MTT), T80-Hras
[7] = test system: DU-145 prostate cancer cells; test: MTT cell viability assay; assay type: cell-based, human; details: read-out: IC50 cell viability (MTT)
[8] = test system: LNCaP prostate cancer cells; test: MTT cell viability assay; assay type: cell-based, human
CaLu-1 lung cancer cells = test: MTT cell viability assay; assay type: cell-based, human; details: read-out: IC50 cell viability (MTT)
A549 lung cancer cells = test: MTT cell viability assay; assay type: cell-based, human; details: read-out: IC50 cell viability (MTT)
[9] = test system: U266 multiple myeloma cells; test: MTT cell viability assay; assay type: cell-based, human; details: read-out: IC50 cell viability (MTT)
[10] = test system: RPMI-8226 multiple myeloma cells; test: MTT cell viability assay; assay type: cell-based, human; details: read-out: IC50 cell viability (MTT)
[11] = target: T1, CT-L activity of the proteasome in primary multiple myeloma cells (Homo sapiens, UniProt P20618+P28074); test: CT-L activity in primary MM cells from patients' bone marrow; assay type: cell-based; details: read-out: IC50 CT-L Activity
T1 sequence (P28074 60-263): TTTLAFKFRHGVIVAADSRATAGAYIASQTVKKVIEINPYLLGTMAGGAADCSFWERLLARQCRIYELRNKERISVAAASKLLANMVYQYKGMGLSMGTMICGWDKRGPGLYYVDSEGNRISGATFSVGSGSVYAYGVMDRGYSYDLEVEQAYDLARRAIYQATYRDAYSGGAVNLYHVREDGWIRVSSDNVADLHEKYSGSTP
T1 sequence (P20618 29-241): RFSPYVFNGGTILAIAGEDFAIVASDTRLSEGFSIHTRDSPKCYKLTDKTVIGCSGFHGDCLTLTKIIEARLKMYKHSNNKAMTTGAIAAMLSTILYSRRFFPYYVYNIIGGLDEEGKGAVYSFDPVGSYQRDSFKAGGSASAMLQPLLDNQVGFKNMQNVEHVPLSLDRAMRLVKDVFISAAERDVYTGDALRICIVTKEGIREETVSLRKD

[12] = test system: primary multiple myeloma cells from patients' bone marrow; test: Proliferation of primary MM cells; assay type: cell-based, human; details: read-out: IC50 Proliferation
[13] = test system: primary multiple myeloma cells from patients' bone marrow; test: Cell death of primary MM cells; assay type: cell-based, human; details: read-out: IC50 Cell Death
[14] = test system: primary multiple myeloma cells from patients' bone marrow; test: Viability of primary MM cells; assay type: cell-based, human; details: read-out: IC50 Viability
A549 human lung tumors = test: A549 xenograft in nude mice; assay type: in vivo; details: A549 s.c. xenograft, 1 mpk i.p. 2x weekly
[15] = target: tumor CT-L activity of the proteasome (Homo sapiens, UniProt P20618+P28074); test: Proteasome activity in A549 tumor lysates after in vivo treatment, CT-L; set-up: species or system nude mice; details: A549 tumors, 1 mpk i.p., 2 h after last injection
[16] = target: tumor T-L activity of the proteasome (Homo sapiens, UniProt Q99436); test: Proteasome activity in A549 tumor lysates after in vivo treatment, T-L; set-up: species or system nude mice; details: A549 tumors, 1 mpk i.p., 2 h after last injection
[17] = test system: p27^Kip1 levels in A549 lung cancer cells; test: Western blot of p27Kip1 in cultured A549 cells; assay type: cell-based, human; details: 48 h
[18] = target: CT-L activity in MCF-7/MCF-10A, T80-Hras/T80, C7-Kras/C7 cells (Homo sapiens, UniProt P20618+P28074); assay type: cell-based; details: 24 h, 3 pairs of cell lines, Fig. 2
[19] = test system: MCF-7/MCF-10A, T80-Hras/T80, C7-Kras/C7 cells; test: TUNEL apoptosis assay in 3 pairs of cell lines; assay type: cell-based, human; details: 24 h
[20] = Tolerability in treated mice; assay type: in vivo; details: mice treated with PI-083
[21] = read-out: IC50 cell viability (MTT), 24 h
[22] = read-out: IC50 cell viability (MTT), 72 h

T-L activity of purified 20S proteasome, sequence (G1SWK8 44-271): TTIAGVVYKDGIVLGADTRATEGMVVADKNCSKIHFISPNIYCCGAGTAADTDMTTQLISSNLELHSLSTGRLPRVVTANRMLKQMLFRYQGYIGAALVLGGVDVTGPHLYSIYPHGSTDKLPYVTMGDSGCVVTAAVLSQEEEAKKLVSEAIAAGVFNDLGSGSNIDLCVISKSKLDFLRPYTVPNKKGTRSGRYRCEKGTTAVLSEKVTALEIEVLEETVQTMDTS
CT-L activity of purified 20S proteasome, sequence (G1T4Q9 60-263): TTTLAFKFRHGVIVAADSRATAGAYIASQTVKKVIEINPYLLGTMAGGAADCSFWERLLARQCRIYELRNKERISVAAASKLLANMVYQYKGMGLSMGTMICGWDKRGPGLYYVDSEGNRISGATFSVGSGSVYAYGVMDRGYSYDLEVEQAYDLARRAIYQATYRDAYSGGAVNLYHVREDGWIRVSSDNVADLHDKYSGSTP
CT-L activity of purified 20S proteasome, sequence (G1SU71 29-241): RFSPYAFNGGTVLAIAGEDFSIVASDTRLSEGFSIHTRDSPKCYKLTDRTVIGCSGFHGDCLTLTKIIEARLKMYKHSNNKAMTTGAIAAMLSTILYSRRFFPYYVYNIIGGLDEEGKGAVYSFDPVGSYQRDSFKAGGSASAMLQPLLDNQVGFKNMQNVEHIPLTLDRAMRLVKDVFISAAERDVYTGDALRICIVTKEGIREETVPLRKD
PGPH activity of purified 20S proteasome, sequence (G1T235 96-265): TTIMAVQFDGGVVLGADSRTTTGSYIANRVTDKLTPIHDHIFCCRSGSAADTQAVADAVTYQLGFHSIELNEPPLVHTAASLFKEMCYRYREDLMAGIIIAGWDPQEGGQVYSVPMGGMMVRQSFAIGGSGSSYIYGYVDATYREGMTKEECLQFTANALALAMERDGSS

## O=C1C(Cl)=C(Nc2ccc(S(=O)(=O)Nc3ccccn3)cc2)C(=O)c2ccccc21 [PI-083]
[1]
  IC50: 1000 ± 630 nM
[2]
  IC50: 4500 ± 1400 nM
[3]
  IC50: 4500 ± 1200 nM
[4]; MCF-7, 24 h
  IC50: 4500 ± 820 nM
[4]; MCF-7, 72 h
  IC50: 2200 ± 1100 nM
[5]; [21]
  IC50: 17000 ± 860 nM
[5]; [22]
  IC50: 4200 ± 2100 nM
[6]; [21]
  IC50: 2400 ± 230 nM
[6]; [22]
  IC50: 1900 ± 200 nM
T80-Hras ovarian cells; 24 h
  IC50: 1500 ± 570 nM
T80-Hras ovarian cells; 72 h
  IC50: 2100 ± 400 nM
[7]; DU-145, 24 h
  IC50: 8600 ± 630 nM
[7]; DU-145, 72 h
  IC50: 5000 ± 720 nM
[8]; [21]
  IC50: 14000 ± 2800 nM
[8]; [22]
  IC50: 5200 ± 1100 nM
CaLu-1 lung cancer cells; CaLu-1, 24 h
  IC50: 7300 ± 430 nM
CaLu-1 lung cancer cells; CaLu-1, 72 h
  IC50: 4900 ± 1200 nM
A549 lung cancer cells; A549, 24 h
  IC50: 41000 ± 17000 nM
A549 lung cancer cells; A549, 72 h
  IC50: 11000 ± 6700 nM
[9]; U266, 24 h
  IC50: 23000 ± 1700 nM
[9]; U266, 72 h
  IC50: 7000 ± 1500 nM
[10]; RPMI-8226, 24 h
  IC50: 7400 ± 380 nM
[10]; RPMI-8226, 72 h
  IC50: 10000 ± 4000 nM
[11]; patient 3, 24 h
  IC50: 1400 nM
[11]; patient 6, 24 h
  IC50: 1200 nM
[11]; patient 9, 24 h
  IC50: 1800 nM
[12]; patient 1, 24 h
  IC50: 5000 nM
[12]; patient 2, 24 h
  IC50: 2900 nM
[12]; patient 4, 24 h
  IC50: 1300 nM
[12]; patient 5, 24 h
  IC50: 2200 nM
[12]; patient 6, 24 h
  IC50: 2200 nM
[12]; patient 10, 24 h
  IC50: 10000 nM
[13]; patient 5, 24 h
  IC50: 1100 nM
[13]; patient 10, 24 h
  IC50: 9000 nM
[14]; patient 2, 24 h
  IC50: > 10000 nM
[14]; patient 3, 24 h
  IC50: > 10000 nM
[14]; patient 4, 24 h
  IC50: 2200 nM
[14]; patient 4, 72 h
  IC50: 2200 nM
[14]; patient 5, 24 h
  IC50: 3400 nM
[14]; patient 6, 72 h
  IC50: 1400 nM
[14]; patient 7, 24 h
  IC50: 1800 nM
[14]; patient 7, 48 h
  IC50: 1400 nM
[14]; patient 7, 72 h
  IC50: 1300 nM
[14]; patient 8, 24 h
  IC50: 2000 nM
[14]; patient 8, 72 h
  IC50: 1800 nM
[14]; patient 9, 24 h
  IC50: 1400 nM
[14]; patient 10, 24 h
  IC50: > 10000 nM
A549 human lung tumors
  tumor growth inhibition: 54%
A549 human lung tumors; start ~200 mm^3, 16 days
  average tumor size: about 511 ± 134 mm^3
[15]
  inhibition of tumor CT-L activity vs vehicle-treated controls: 43%
[16]
  inhibition of tumor T-L activity vs vehicle-treated controls: 12%
[17]
  p27^Kip1 levels: marked increase
[18]
  selectivity of CT-L inhibition, tumor vs non-transformed cells: inhibited more selectively the CT-L activity in tumor over non-transformed cells
[19]; T80 cells
  apoptosis (TUNEL): induced very little apoptosis
[19]; cancer cell lines MCF-7, T80-Hras and C7-Kras
  apoptosis (TUNEL): induced apoptosis in all 3 cancer cell lines
[19]; non-transformed MCF-10A and C7
  apoptosis (TUNEL): did not induce apoptosis
[20]
  weight, appetite, activity of treated mice: no weight loss, change in appetite or activity
